Measured values reported in ChEMBL document CHEMBL3774345, “Synthesis of new diarylamides with pyrimidinyl pyridine scaffold and evaluation of their anti-proliferative effect on cancer cell lines” (Bioorg Med Chem Lett, 2016).

Tests used:
Type in all cases: functional
[1] = test system: NCI-H226; test: Cytotoxicity against human NCI-H226 cells assessed as cell growth at 10 uM after 24 hrs by SRB assay; settings: NCI-H226, 24 h, read-out: Activity
[2] = Cytotoxicity against human HL-60(TB) cells assessed as cell growth at 10 uM after 24 hrs by SRB assay; settings: HL-60, 24 h, read-out: Activity
[3] = test system: ACHN; test: Cytotoxicity against human ACHN cells assessed as cell growth at 10 uM after 24 hrs by SRB assay; settings: read-out: Activity
[4] = Cytotoxicity against human HOP62 cells assessed as cell growth at 10 uM after 24 hrs by SRB assay; settings: HOP-62, 24 h, read-out: Activity
[5] = Cytotoxicity against human HOP92 cells assessed as cell growth at 10 uM after 24 hrs by SRB assay; settings: HOP-92, 24 h, read-out: Activity
[6] = Cytotoxicity against human OVCAR4 cells assessed as cell growth at 10 uM after 24 hrs by SRB assay; settings: OVCAR-4, 24 h, read-out: Activity
[7] = test system: SR; test: Cytotoxicity against human SR cells assessed as cell growth at 10 uM after 24 hrs by SRB assay; settings: read-out: Activity
[8] = test system: 786-0; test: Cytotoxicity against human 786-0 cells assessed as cell growth at 10 uM after 24 hrs by SRB assay; settings: 786-0, 24 h, read-out: Activity
[9] = test system: Malme-3M; test: Cytotoxicity against human MALME-3M cells assessed as cell growth at 10 uM after 24 hrs by SRB assay; settings: read-out: Activity
[10] = Cytotoxicity against human LOXIMVI cells assessed as cell growth at 10 uM after 24 hrs by SRB assay; settings: LOX IMVI, read-out: Activity
[11] = Cytotoxicity against human SF268 cells assessed as cell growth at 10 uM after 24 hrs by SRB assay; settings: SF-268, 24 h, read-out: Activity
[12] = Cytotoxicity against human OVCAR5 cells assessed as cell growth at 10 uM after 24 hrs by SRB assay; settings: OVCAR-5, 24 h, read-out: Activity
[13] = test system: K562; test: Cytotoxicity against human K562 cells assessed as cell growth at 10 uM after 24 hrs by SRB assay; settings: K562, 24 h, read-out: Activity
[14] = Cytotoxicity against human HCT116 cells assessed as cell growth at 10 uM after 24 hrs by SRB assay; settings: HCT-116, 24 h, read-out: Activity
[15] = test system: U-251; test: Cytotoxicity against human U251 cells assessed as cell growth at 10 uM after 24 hrs by SRB assay; settings: U-251, 24 h, read-out: Activity
[16] = test system: NCI-H460; test: Cytotoxicity against human NCI-H460 cells assessed as cell growth at 10 uM after 24 hrs by SRB assay; settings: NCI-H460, 24 h, read-out: Activity
[17] = test system: NCI-H23; test: Cytotoxicity against human NCI-H23 cells assessed as cell growth at 10 uM after 24 hrs by SRB assay; settings: NCI-H23, 24 h, read-out: Activity
[18] = Cytotoxicity against human UACC62 cells assessed as cell growth at 10 uM after 24 hrs by SRB assay; settings: UACC-62, 24 h, read-out: Activity
[19] = Cytotoxicity against human IGROV1 cells assessed as cell growth at 10 uM after 24 hrs by SRB assay; settings: IGROV-1, 24 h, read-out: Activity
[20] = Cytotoxicity against human SW620 cells assessed as cell growth at 10 uM after 24 hrs by SRB assay; settings: SW-620, 24 h, read-out: Activity
[21] = Cytotoxicity against human PC3 cells assessed as cell growth at 10 uM after 24 hrs by SRB assay; settings: PC-3, 24 h, read-out: Activity
[22] = test system: KM12; test: Cytotoxicity against human KM12 cells assessed as cell growth at 10 uM after 24 hrs by SRB assay; settings: KM12, 24 h, read-out: Activity
[23] = test system: NCI-H522; test: Cytotoxicity against human NCI-H522 cells assessed as cell growth at 10 uM after 24 hrs by SRB assay; settings: NCI-H522, 24 h, read-out: Activity
[24] = test system: SK-MEL-5; test: Cytotoxicity against human SK-MEL-5 cells assessed as cell growth at 10 uM after 24 hrs by SRB assay; settings: SK-MEL-5, 24 h, read-out: Activity
[25] = Cytotoxicity against human HCT15 cells assessed as cell growth at 10 uM after 24 hrs by SRB assay; settings: HCT-15, 24 h, read-out: Activity
[26] = Cytotoxicity against human Caki1 cells assessed as cell growth at 10 uM after 24 hrs by SRB assay; settings: CAKI-1, 24 h, read-out: Activity
[27] = Cytotoxicity against human Hs 578T cells assessed as cell growth at 10 uM after 24 hrs by SRB assay; settings: read-out: Activity
[28] = Cytotoxicity against human SKOV3 cells assessed as cell growth at 10 uM after 24 hrs by SRB assay; settings: SK-OV-3, 24 h, read-out: Activity
[29] = test system: A498; test: Cytotoxicity against human A498 cells assessed as cell growth at 10 uM after 24 hrs by SRB assay; settings: A498, 24 h, read-out: Activity
[30] = Cytotoxicity against human HCC2998 cells assessed as cell growth at 10 uM after 24 hrs by SRB assay; settings: HCC 2998, 24 h, read-out: Activity
[31] = test system: MDA-MB-435; test: Cytotoxicity against human MDA-MB-435 cells assessed as cell growth at 10 uM after 24 hrs by SRB assay; settings: MDA-MB-435, 24 h, read-out: Activity
[32] = test system: T47D; test: Cytotoxicity against human T47D cells assessed as cell growth at 10 uM after 24 hrs by SRB assay; settings: read-out: Activity
[33] = Cytotoxicity against human RPMI8226 cells assessed as cell growth at 10 uM after 24 hrs by SRB assay; settings: RPMI-8226, 24 h, read-out: Activity
[34] = Cytotoxicity against human OVCAR8 cells assessed as cell growth at 10 uM after 24 hrs by SRB assay; settings: OVCAR-8, 24 h, read-out: Activity
[35] = test system: HT-29; test: Cytotoxicity against human HT-29 cells assessed as cell growth at 10 uM after 24 hrs by SRB assay; settings: HT-29, 24 h, read-out: Activity
[36] = Cytotoxicity against human SNB19 cells assessed as cell growth at 10 uM after 24 hrs by SRB assay; settings: SNB-19, 24 h, read-out: Activity
[37] = Cytotoxicity against human SF295 cells assessed as cell growth at 10 uM after 24 hrs by SRB assay; settings: SF-295, 24 h, read-out: Activity
[38] = Cytotoxicity against human SNB75 cells assessed as cell growth at 10 uM after 24 hrs by SRB assay; settings: SNB-75, 24 h, read-out: Activity
[39] = Cytotoxicity against human SF539 cells assessed as cell growth at 10 uM after 24 hrs by SRB assay; settings: SF-539, 24 h, read-out: Activity

Compound O=C(Nc1cc(-c2cccnc2)nc(NCCCN2CCOCC2)n1)c1ccc(F)cc1Cl has a growth at 10 µM [1] of 108%, a growth at 10 µM [2] of 83.6% and a growth at 10 µM [3] of 102%. The growth at 10 µM [4] was 95.5%, the growth at 10 µM [5] was 91.2% and the growth at 10 µM [6] was 115%. For the same compound, the growth at 10 µM [7] was 92.8%, the growth at 10 µM [8] was 89.2% and the growth at 10 µM [9] was 108%. For the same compound, the growth at 10 µM [10] was 96.5%, the growth at 10 µM [11] was 94.9% and the growth at 10 µM [12] was 100%. It also gave a growth at 10 µM [13] of 83.3%, a growth at 10 µM [14] of 106% and a growth at 10 µM [15] of 92%. For the same compound, the growth at 10 µM [16] was 94.8%, the growth at 10 µM [17] was 90.5% and the growth at 10 µM [18] was 105%. It also gave a growth at 10 µM [19] of 95.9%, a growth at 10 µM [20] of 90.3% and a growth at 10 µM [21] of 91.2%. The growth at 10 µM [22] was 104%, the growth at 10 µM [23] was 87.1% and the growth at 10 µM [24] was 88%. The growth at 10 µM [25] was 94.5%, the growth at 10 µM [26] was 90.3% and the growth at 10 µM [27] was 105%. For the same compound, the growth at 10 µM [28] was 101%, the growth at 10 µM [29] was 81.2% and the growth at 10 µM [30] was 98.4%. The growth at 10 µM [31] was 106%, the growth at 10 µM [32] was 99.5% and the growth at 10 µM [33] was 90%. It also gave a growth at 10 µM [34] of 94.2%, a growth at 10 µM [35] of 87.3% and a growth at 10 µM [36] of 94.2%. The growth at 10 µM [37] was 100%, the growth at 10 µM [38] was 112% and the growth at 10 µM [39] was 101%.

In the case of O=C(Nc1cc(-c2cccnc2)nc(NCCCN2CCOCC2)n1)c1cc(Br)cc(C(F)(F)F)c1, the growth at 10 µM [1] is reported as 73.8%, the growth at 10 µM [2] is reported as 48.5% and the growth at 10 µM [3] is reported as 75.6%. It also gave a growth at 10 µM [4] of 69.4%, a growth at 10 µM [5] of 34.6% and a growth at 10 µM [6] of 62.2%. For the same compound, the growth at 10 µM [7] was 4.25%, the growth at 10 µM [8] was 51.8% and the growth at 10 µM [9] was -7.83%. It also gave a growth at 10 µM [10] of -16.8%, a growth at 10 µM [11] of 60.9% and a growth at 10 µM [12] of 81.4%. The growth at 10 µM [13] was 8.84%, the growth at 10 µM [14] was 35.7% and the growth at 10 µM [15] was 33.1%. It also gave a growth at 10 µM [16] of 56%, a growth at 10 µM [17] of 80.9% and a growth at 10 µM [18] of -6.13%. The growth at 10 µM [19] was 63.1%, the growth at 10 µM [20] was 75.4% and the growth at 10 µM [21] was 57.7%. For the same compound, the growth at 10 µM [22] was 80%, the growth at 10 µM [23] was 60.2% and the growth at 10 µM [24] was 3.78%. It also gave a growth at 10 µM [25] of 6.87%, a growth at 10 µM [26] of 61.8% and a growth at 10 µM [27] of 54%. It also gave a growth at 10 µM [28] of 92.3%, a growth at 10 µM [29] of 53.7% and a growth at 10 µM [30] of 37.8%. The growth at 10 µM [31] was 9.55%, the growth at 10 µM [32] was 46.4% and the growth at 10 µM [33] was 30.2%. It also gave a growth at 10 µM [34] of 58.5%, a growth at 10 µM [35] of 8.99% and a growth at 10 µM [36] of 69.6%. The growth at 10 µM [37] was -22.8%, the growth at 10 µM [38] was 72.1% and the growth at 10 µM [39] was 66.5%.
